# Source: PMC8269058, “The Odorant-Binding Proteins of the Spider Mite Tetranychus urticae” (International Journal of Molecular Sciences, 2021)
# Columns and labels:
# TurtOBP4 [1] = experiment: fluorescent probe titration (blue shift) with purified recombinant protein; format: binding, Tetranychus urticae
# TurtOBP1 [2] = experiment: as above; format: binding, Tetranychus urticae
# TurtOBP4 [3] = experiment: competitive fluorescence binding assay, displacement of 1-NPN; parameters: species or system Tetranychus urticae
# TurtOBP1 [4] = experiment: as above; parameters: species or system Tetranychus urticae
Kd (TurtOBP4 [3]) [µM],Kd (TurtOBP1 [4]) [µM],Structure (SMILES),Kd (TurtOBP4 [1]) [µM],Kd (TurtOBP1 [2]) [µM]
,,c1ccc(Nc2cccc3ccccc23)cc1 [1-NPN],3.5,9.7
6.4,9.8,COc1cc(/C=C/C=O)ccc1O [coniferyl aldehyde],,
